ChEMBL document CHEMBL3994670, “Therapeutic Advantage of the Positive Allosteric Modulators of the GABA-B Receptor” (ACS Med Chem Lett, 2017)
pEC50: −log10 of the molar value.

Assay: Positive allosteric modulation of GABA-B receptor in rat brain cortex membranes assessed as increase in GABA-induced [35S]GTPgammaS binding after 60 mins by liquid scintillation counting method
Assay type: cell membranes

pEC50	Structure (SMILES)
7.64	CNC(=O)c1ccc(OC)c(-c2nn([C@@H](C)c3ccc(Cl)cc3)c(=O)c3c(C)noc23)c1
7.29	COc1ccc(NC(C)=O)cc1-c1nn([C@@H](C)c2ccc(Cl)cc2)c(=O)c2c(C3CC3)noc12
5.57	Cc1noc2c(-c3cncc(F)c3)nn(C(C)c3ccc(Cl)cc3)c(=O)c12 (stereo unspecified)
5.59	CC(=O)Nc1cccc(-c2nn(Cc3ccc(Cl)cc3)c(=O)c3c(C(C)C)noc23)c1
7.37	COc1ccc(NC(C)=O)cc1-c1nn([C@@H](C)c2ccc(Cl)cc2)c(=O)c2c(C)noc12
7.77	COc1ccc(C(N)=O)cc1-c1nn(C(C)c2ccc(Cl)cc2)c(=O)c2c(C)noc12 (stereo unspecified)
